According to the supplement of paper PMC8837787:

The molecules below were run on Saccharomyces cerevisiae ABC16-Green Monster. Settings: 18 h; 30 °C; YPD.
Protocol: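 Growth inhibition of the drug-sensitive S. cerevisiae ABC16-Green Monster strain (16 ABC transporters deleted) in YPD at 30 °C for 18 h. […] dilution series […] in biological replicates; IC50 from OD600 (18 h minus 0 h) fitted by variable-slope nonlinear regression in GraphPad Prism. Library compounds were first screened at 150 µM, and only those with at least 70% inhibition went to dose-response; the rest are marked inactive.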

SMILES	IC50 growth inhibition [µM]
Cc1cc(C)n(-c2ccc3c(Cl)cc(Cl)c(O)c3n2)n1	71.3
COC1CC2CCC(C)C(O)(O2)C(=O)C(=O)N2CCCCC2C(=O)OC(C(C)CC2CCC(O)C(OC)C2)CC(=O)C(C)C=C(C)C(O)C(OC)C(=O)C(C)CC(C)C=CC=CC=C1C (stereo not given) [Rapamycin]	0.727
CN1CCCN=C1C=Cc1cccs1.O=C(O)c1cc2ccccc2c(Cc2c(O)c(C(=O)O)cc3ccccc23)c1O [Pyrantal Pamoate]	> 75
O=C(Nc1nc(-c2ccccn2)cs1)C1CC1c1ccccc1F (stereo not given)	6.32
Clc1ccccc1-c1nc([P+](c2ccccc2)(c2ccccc2)c2ccccc2)c(N2CCOCC2)o1 [GNF-PF-2863]	8.55
Oc1ccc(C(=C(Cl)Cl)c2ccc(O)cc2)cc1	6.96
Brc1cncc(-c2cc(NCCCn3ccnc3)nc(-c3ccccc3)n2)c1	23.9
CC[C@@]1(O)C[C@H](O[C@H]2C[C@H](N(C)C)[C@H](O[C@H]3C[C@H](O)[C@H](O[C@H]4CCC(=O)[C@H](C)O4)[C@H](C)O3)[C@H](C)O2)c2c(cc3c(c2O)C(=O)c2c(O)cccc2C3=O)[C@H]1C(=O)OC [Aclarubicin]	4.79
Cc1nn(C(=O)Nc2cccc(C(F)(F)F)c2)c(C)c1Sc1ncccn1	45
CC1=Nn2cc(-c3ccccc3)nc2SC1c1ccccc1 (stereo not given)	64.2
Cc1nc(C(=N)NOC(=O)c2c(-c3c(Cl)cccc3Cl)noc2C)cs1	21.2
CNC(=O)c1ccccc1Nc1nc(Nc2ccc3c(c2OC)CCC[C@H](N2CCN(CCO)CC2)C3)ncc1Cl	37.7
CC1CCC2C(C)C(O)OC3OC4(C)CCC1C32OO4 (stereo not given) [Dihydroartemisinin]	> 75
CCCCCc1nnc(NC(=O)c2nccnc2N)s1	74.2
Cc1nc(NC(=O)c2csc(NC3CCCC3)n2)sc1C	12.4
N#Cc1c(N2CCCC2)nn(C(=O)Nc2ccc(Cl)c(Cl)c2)c1N	4.53
Cc1ccc(NC(=O)c2ccc(CN3CCN(C)CC3)cc2)cc1Nc1nccc(-c2cccnc2)n1 [Imatinib]	> 75
CCCOC(=O)C1=C(C)NC2=C(C(=O)CC(c3ccc(OC)c(OC)c3)C2)C1c1ccc(Cl)cc1Cl (stereo not given) [GNF-Pf-5672]	5.08
O=C1c2ccccc2C2=Nc3ccccc3SC(c3cccc(F)c3)C12 (stereo not given)	1.68
Cc1ccc2c(Br)cc(Br)c(OC(=O)c3ccccc3)c2n1 [Broxaldine]	2.24

SMILES	IC50 growth inhibition [µM]
CNCCC(Oc1ccc(C(F)(F)F)cc1)c1ccccc1 (stereo not given) [Fluoxetin]	59.5
CC(C)/N=c1\cc2n(-c3ccc(Cl)cc3)c3ccccc3nc-2cc1Nc1ccc(Cl)cc1 [Clofazimine]	5.81
CCCC(=O)NC(c1ccc(Cl)cc1)c1ccc2cccnc2c1O (stereo not given) [GNF-Pf-3257]	55.9
COC1=C2CC(C)CC(OC)C(O)C(C)C=C(C)C(OC(N)=O)C(OC)C=CC=C(C)C(=O)NC(=CC1=O)C2=O (stereo not given) [Geldanamycin]	> 75
Cc1nc(-c2ccccn2)nc(N2CCC(Cc3ccccc3)C2)c1Cl (stereo not given)	21
COc1ccc(Oc2ccc([C@@H](C)N(C)c3ncc4c(N)nc(N)nc4n3)cc2)cc1	30.5
C[C@]1(O)C[C@@H](c2nc(-c3ccc4ccc(-c5ccccc5)nc4c3)c3c(N)nccn32)C1 [Linsitinib]	16
Cc1c(C)n(CCCN(C)C)c2ncn3nc(-c4ccc(N(C)C)cc4)nc3c12	42.3
Nc1ccc2ncnc(Nc3ccc(OCc4cccc(F)c4)c(Cl)c3)c2c1	18.7
O=C(Nc1nnc(-c2ccc(Cl)cc2)o1)c1cccc(C(F)(F)F)c1	71.2
CC1(C)C=Cc2cc(C(=N)NOC(=O)c3ccccc3)ccc2O1	4.33
Cc1cc(NC(C)C)n2ncc(-c3ccc(F)cc3)c2n1	90.7
COC1=CC(C)=CC(C)C(O)C(C)CC(C)=CC=CC(OC)C(C(C)C(O)C(C)C2(O)CC(O)C(C)C(C(C)C)O2)OC1=O (stereo not given) [Bafilomycin A1]	0.164
O=C(Nc1cccc(C(F)(F)F)c1)c1cc(Cl)ccc1O	4.18
CCOC(=O)C1=C(C)NC(C)=C(C(=O)OC)C1c1cccc(Cl)c1Cl (stereo not given) [Felodipine]	20.7
Cl.c1ccc(C2CCCC2NC2=NCCCCCCCCCCC2)cc1 (stereo not given) [MDL-12]	54.6
CC(CN1c2ccccc2Sc2ccccc21)N(C)C (stereo not given) [Promethazine]	98.9
O=C(O)c1ccc2c(c1)nc(Nc1cccc(Cl)c1)c1ccncc12 [Silmitasertib]	> 75
CON=C(C(=O)OC)c1ccccc1CON=C(C)c1cccc(C(F)(F)F)c1 [Trifloxystrobin]	> 75
Fc1ccc2[nH]c3c(N4CCN(C(c5ccccc5)c5ccccc5)CC4)ncnc3c2c1 [GNF-Pf-2775]	0.723
